# Reference: patent US11370798B2 (Vertex Pharmaceuticals Incorporated, priority 2012, dated 2022)
# Test system: HCT116 colorectal cancer cells
# Assay: Cisplatin sensitization assay (96 h cell viability MTS);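 note: Test-compound concentration that lowers the Cisplatin IC50 by a set fold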
# Format: cell-based
# Details: compound and Cisplatin added simultaneously, Cisplatin sensitization value
# How it was run: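 Compound and cisplatin added together as a full matrix of 2-fold serial dilutions from a top final concentration of 10 μM; cells incubated 96 h at 37° C, 5% CO2. Viability then read by MTS after 1 h further incubation; sensitization value reported in μM bins.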
row,Structure (SMILES),Cisplatin Sensitization Assay
1,"CN1CCN(C(=O)C2(C)CCN(c3c(F)cncc3NC(=O)c3c(N)nn4cc(F)cnc34)CC2)CC1 [I-G-54, 2-amino-6-fluoro-N-(5-fluoro-4-(4-methyl-4-(4-methylpiperazine-1-carbonyl)piperidin-1-yl)pyridin-3-yl)pyrazolo[1,5-a]pyrimidine-3-carboxamide]",+++ (Cisplatin sensitization value of <0.02 μM)
2,"Cc1cncc(NC(=O)c2c(N)nn3cc(F)cnc23)c1N1CCC(C(=O)N2CCN(C)CC2)CC1 [I-G-55, 2-amino-6-fluoro-N-(5-methyl-4-(4-(4-methylpiperazine-1-carbonyl)piperidin-1-yl)pyridin-3-yl)pyrazolo[1,5-a]pyrimidine-3-carboxamide]",+++ (Cisplatin sensitization value of <0.02 μM)
3,"Cc1cncc(NC(=O)c2c(N)nn3cc(F)cnc23)c1N1CCC(C(=O)N2CCNCC2)CC1 [I-G-56, 2-amino-6-fluoro-N-(5-methyl-4-(4-(piperazine-1-carbonyl)piperidin-1-yl)pyridin-3-yl)pyrazolo[1,5-a]pyrimidine-3-carboxamide]",+++ (Cisplatin sensitization value of <0.02 μM)
4,"Nc1nn2cc(F)cnc2c1C(=O)Nc1cncc(F)c1N1CCC(C(=O)N2CC(N3CCCCC3)C2)CC1 [I-G-57, 2-amino-6-fluoro-N-(5-fluoro-4-(4-(3-(piperidin-1-yl)azetidine-1-carbonyl)piperidin-1-yl)pyridin-3-yl)pyrazolo[1,5-a]pyrimidine-3-carboxamide]",+++ (Cisplatin sensitization value of <0.02 μM)
5,"Nc1nn2cc(F)cnc2c1C(=O)Nc1cncc(F)c1N1CCC(C(=O)N2CC[C@H](N3CCCC3)C2)CC1 [I-G-58, (S)—N-(4-(4-([1,3′-bipyrrolidine]-1′-carbonyl)piperidin-1-yl)-5-fluoropyridin-3-yl)-2-amino-6-fluoropyrazolo[1,5-a]pyrimidine-3-carboxamide]",+++ (Cisplatin sensitization value of <0.02 μM)
6,"Nc1nn2cc(F)cnc2c1C(=O)Nc1cncc(F)c1N1CCC(C(=O)N2CCC(N3CCCC3)CC2)CC1 [I-G-59, 2-amino-6-fluoro-N-(5-fluoro-4-(4-(4-(pyrrolidin-1-yl)piperidine-1-carbonyl)piperidin-1-yl)pyridin-3-yl)pyrazolo[1,5-a]pyrimidine-3-carboxamide]",+++ (Cisplatin sensitization value of <0.02 μM)
7,"Nc1nn2cc(F)cnc2c1C(=O)Nc1cncc(F)c1N1CCC(C(=O)N2CCC(N3CCCCC3)CC2)CC1 [I-G-60, N-(4-(4-([1,4′-bipiperidine]-1′-carbonyl)piperidin-1-yl)-5-fluoropyridin-3-yl)-2-amino-6-fluoropyrazolo[1,5-a]pyrimidine-3-carboxamide]",+++ (Cisplatin sensitization value of <0.02 μM)
8,"C[C@H]1CN(C(=O)C2CCN(c3c(F)cncc3NC(=O)c3c(N)nn4cc(F)cnc34)CC2)CCN1 [I-G-61, (S)-2-amino-6-fluoro-N-(5-fluoro-4-(4-(3-methylpiperazine-1-carbonyl)piperidin-1-yl)pyridin-3-yl)pyrazolo[1,5-a]pyrimidine-3-carboxamide]",+++ (Cisplatin sensitization value of <0.02 μM)
9,"Nc1nn2cc(F)cnc2c1C(=O)Nc1cncc(F)c1N1CCC(C(=O)N2CCNC3CC32)CC1 (centres unmarked) [I-G-62, N-(4-(4-(2,5-diazabicyclo[4.1.0]heptane-2-carbonyl)piperidin-1-yl)-5-fluoropyridin-3-yl)-2-amino-6-fluoropyrazolo[1,5-a]pyrimidine-3-carboxamide]",+++ (Cisplatin sensitization value of <0.02 μM)
10,"CC1(O)CN(C(=O)C2CCN(c3c(F)cncc3NC(=O)c3c(N)nn4cc(F)cnc34)CC2)C1 [I-G-63, 2-amino-6-fluoro-N-(5-fluoro-4-(4-(3-hydroxy-3-methylazetidine-1-carbonyl)piperidin-1-yl)pyridin-3-yl)pyrazolo[1,5-a]pyrimidine-3-carboxamide]",+++ (Cisplatin sensitization value of <0.02 μM)
11,"Nc1nn2cc(F)cnc2c1C(=O)Nc1cncc(F)c1N1CCC(C(=O)N2CCC(N3CCCCC3)C2)CC1 (centres unmarked) [I-G-64, 2-amino-6-fluoro-N-(5-fluoro-4-(4-(3-(piperidin-1-yl)pyrrolidine-1-carbonyl)piperidin-1-yl)pyridin-3-yl)pyrazolo[1,5-a]pyrimidine-3-carboxamide]",+++ (Cisplatin sensitization value of <0.02 μM)
12,"CN1CCN(C(=O)C2CCN(c3c(F)cncc3NC(=O)c3c(N)nn4cc(F)cnc34)CC2)C2CC21 (centres unmarked) [I-G-65, 2-amino-6-fluoro-N-(5-fluoro-4-(4-(5-methyl-2,5-diazabicyclo[4.1.0]heptane-2-carbonyl)piperidin-1-yl)pyridin-3-yl)pyrazolo[1,5-a]pyrimidine-3-carboxamide]",+++ (Cisplatin sensitization value of <0.02 μM)
13,"Nc1nn2cc(F)cnc2c1C(=O)Nc1cncc(Cl)c1N1CCC(C(=O)N2CCN3CCC2CC3)CC1 [I-G-66, N-(4-(4-(1,4-diazabicyclo[3.2.2]nonane-4-carbonyl)piperidin-1-yl)-5-chloropyridin-3-yl)-2-amino-6-fluoropyrazolo[1,5-a]pyrimidine-3-carboxamide]",+++ (Cisplatin sensitization value of <0.02 μM)
14,"Nc1nn2cc(F)cnc2c1C(=O)Nc1cncc(F)c1N1CCC(C(=O)N2CC(F)C2)CC1 [I-G-67, 2-amino-6-fluoro-N-(5-fluoro-4-(4-(3-fluoroazetidine-1-carbonyl)piperidin-1-yl)pyridin-3-yl)pyrazolo[1,5-a]pyrimidine-3-carboxamide]",+++ (Cisplatin sensitization value of <0.02 μM)
15,"Nc1nn2cc(F)cnc2c1C(=O)Nc1cncc(F)c1N1CCC(C(=O)N2CCC(N3CCC3)CC2)CC1 [I-G-68, 2-amino-N-(4-(4-(4-(azetidin-1-yl)piperidine-1-carbonyl)piperidin-1-yl)-5-fluoropyridin-3-yl)-6-fluoropyrazolo[1,5-a]pyrimidine-3-carboxamide]",+++ (Cisplatin sensitization value of <0.02 μM)
16,"Nc1nn2cc(F)cnc2c1C(=O)Nc1cncc(Cl)c1N1CCC(C(=O)N2CCN3CCC2C3)CC1 (centres unmarked) [I-G-69, N-(4-(4-(1,4-diazabicyclo[3.2.1]octane-4-carbonyl)piperidin-1-yl)-5-chloropyridin-3-yl)-2-amino-6-fluoropyrazolo[1,5-a]pyrimidine-3-carboxamide]",+++ (Cisplatin sensitization value of <0.02 μM)
17,"Nc1nn2cc(F)cnc2c1C(=O)Nc1cncc(F)c1N1CCC(C(=O)N2CC(F)(F)C2)CC1 [I-G-73, 2-amino-N-(4-(4-(3,3-difluoroazetidine-1-carbonyl)piperidin-1-yl)-5-fluoropyridin-3-yl)-6-fluoropyrazolo[1,5-a]pyrimidine-3-carboxamide]",+++ (Cisplatin sensitization value of <0.02 μM)
18,"COC1(C)CN(C(=O)C2CCN(c3c(F)cncc3NC(=O)c3c(N)nn4cc(F)cnc34)CC2)C1 [I-G-75, 2-amino-6-fluoro-N-(5-fluoro-4-(4-(3-methoxy-3-methylazetidine-1-carbonyl)piperidin-1-yl)pyridin-3-yl)pyrazolo[1,5-a]pyrimidine-3-carboxamide]",+++ (Cisplatin sensitization value of <0.02 μM)
19,"N#CC1CN(C(=O)C2CCN(c3c(F)cncc3NC(=O)c3c(N)nn4cc(F)cnc34)CC2)C1 [I-G-76, 2-amino-N-(4-(4-(3-cyanoazetidine-1-carbonyl)piperidin-1-yl)-5-fluoropyridin-3-yl)-6-fluoropyrazolo[1,5-a]pyrimidine-3-carboxamide]",+++ (Cisplatin sensitization value of <0.02 μM)
20,"Nc1nn2cc(F)cnc2c1C(=O)Nc1cnccc1N1CCC(C(=O)N2CCC2)CC1 [I-G-77, 2-amino-N-(4-(4-(azetidine-1-carbonyl)piperidin-1-yl)pyridin-3-yl)-6-fluoropyrazolo[1,5-a]pyrimidine-3-carboxamide]",+++ (Cisplatin sensitization value of <0.02 μM)
21,"COC1CN(C(=O)C2CCN(c3ccncc3NC(=O)c3c(N)nn4cc(F)cnc34)CC2)C1 [I-G-78, 2-amino-6-fluoro-N-(4-(4-(3-methoxyazetidine-1-carbonyl)piperidin-1-yl)pyridin-3-yl)pyrazolo[1,5-a]pyrimidine-3-carboxamide]",+++ (Cisplatin sensitization value of <0.02 μM)
22,"COC1(C)CN(C(=O)C2CCN(c3ccncc3NC(=O)c3c(N)nn4cc(F)cnc34)CC2)C1 [I-G-79, 2-amino-6-fluoro-N-(4-(4-(3-methoxy-3-methylazetidine-1-carbonyl)piperidin-1-yl)pyridin-3-yl)pyrazolo[1,5-a]pyrimidine-3-carboxamide]",+++ (Cisplatin sensitization value of <0.02 μM)
23,"Nc1nn2cc(F)cnc2c1C(=O)Nc1cnccc1N1CCC(C(=O)N2CC(F)(F)C2)CC1 [I-G-80, 2-amino-N-(4-(4-(3,3-difluoroazetidine-1-carbonyl)piperidin-1-yl)pyridin-3-yl)-6-fluoropyrazolo[1,5-a]pyrimidine-3-carboxamide]",+++ (Cisplatin sensitization value of <0.02 μM)
24,"N#CC1CN(C(=O)C2CCN(c3ccncc3NC(=O)c3c(N)nn4cc(F)cnc34)CC2)C1 [I-G-81, 2-amino-N-(4-(4-(3-cyanoazetidine-1-carbonyl)piperidin-1-yl)pyridin-3-yl)-6-fluoropyrazolo[1,5-a]pyrimidine-3-carboxamide]",+++ (Cisplatin sensitization value of <0.02 μM)
25,"Nc1nn2cc(F)cnc2c1C(=O)Nc1cnccc1N1CCC(C(=O)N2CC(F)C2)CC1 [I-G-82, 2-amino-6-fluoro-N-(4-(4-(3-fluoroazetidine-1-carbonyl)piperidin-1-yl)pyridin-3-yl)pyrazolo[1,5-a]pyrimidine-3-carboxamide]",+++ (Cisplatin sensitization value of <0.02 μM)
26,"Nc1nn2cc(F)cnc2c1C(=O)Nc1cnccc1N1CCC(C(=O)N2CCCC2)CC1 [I-G-83, 2-amino-6-fluoro-N-(4-(4-(pyrrolidine-1-carbonyl)piperidin-1-yl)pyridin-3-yl)pyrazolo[1,5-a]pyrimidine-3-carboxamide]",+++ (Cisplatin sensitization value of <0.02 μM)
